Measured values as given in US7521461B2, “Benzoic acid derivatives as modulators of PPAR alpha and gamma” (AstraZeneca AB, priority 2002, dated 2009).

What was measured:
human PPAR alpha = target: T1, human PPAR alpha (Homo sapiens, UniProt Q07869); test: GAL4-PPAR ligand binding domain luciferase reporter transactivation assay in transiently transfected U2-OS cells; format: cell-based; conditions: concentration giving 50% of the maximal activation obtained by the reference compound (ETYA), about 24 hours exposure
T1 construct: expressed in transfected cells; host or cells: U2-OS (human osteogenic sarcoma), transient transfection by electroporation with a pSG5-based expression vector
T1 sequence (Q07869 239-466 limits assumed): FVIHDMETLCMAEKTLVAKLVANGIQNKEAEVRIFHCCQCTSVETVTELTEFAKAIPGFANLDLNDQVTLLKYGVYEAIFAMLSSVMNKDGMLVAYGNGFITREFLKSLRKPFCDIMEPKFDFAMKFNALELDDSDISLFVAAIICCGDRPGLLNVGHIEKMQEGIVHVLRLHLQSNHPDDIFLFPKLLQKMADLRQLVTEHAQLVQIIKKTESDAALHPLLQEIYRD
Method: (§1) Compounds were dissolved in DMSO to obtain 16 mM stock solutions. Before assays, stock solutions were further diluted in DMSO and culture media
(§2) U2-OS, (Osteogenic sarcoma, Human) was purchased from ATCC, USA. Cells were expanded and refrozen in batches from passage number six. Cells were cultured in Dulbecco's modified Eagle medium (DMEM) with 25 mM glucose, 2 mM glutamine or 4 mM L-alanyl-L-glutamine, 10% fetal calf serum, at 5% CO2. Phosphate buffered saline (PBS) without addition of calcium or magnesium was used. All cell culture reagents were from Gibco (USA) and 96-well cell culture plates were purchased from Wallach.
(§3) Standard recombinant DNA techniques were carried out as described by Ausubel (7). The Luciferase reporter vector, pGL5UAS (clone consists of five copies of the GAL4 DNA binding sequence, 5′-[…]-3′, cloned into the SacI/XhoI sites of pGL3-Promoter (Promega). The SacI/XhoI fragment carrying the UAS sites was constructed using annealed overlapping oligonucleotides.
(§4) Expression vectors used are based upon pSG5 (Stratagene). All vectors contain an EcoRI/NheI fragment encoding the DNA binding domain of GALA (encoding amino acid positions 1-145 of database accession number P04386) followed by an in-frame fusion to a fragment encoding the nuclear localisation sequence from T antigen of Polyoma Virus. […]

mouse PPAR gamma = target: T2, mouse PPAR gamma (Mus musculus, UniProt P37238); test: as above; format: cell-based; conditions: concentration giving 50% of the maximal activation obtained by the reference compound (pioglitazone), about 24 hours exposure
T2 construct: expressed in transfected cells; host or cells: U2-OS (human osteogenic sarcoma), transient transfection by electroporation with a pSG5-based expression vector
T2 sequence (P37238 238-503 limits assumed): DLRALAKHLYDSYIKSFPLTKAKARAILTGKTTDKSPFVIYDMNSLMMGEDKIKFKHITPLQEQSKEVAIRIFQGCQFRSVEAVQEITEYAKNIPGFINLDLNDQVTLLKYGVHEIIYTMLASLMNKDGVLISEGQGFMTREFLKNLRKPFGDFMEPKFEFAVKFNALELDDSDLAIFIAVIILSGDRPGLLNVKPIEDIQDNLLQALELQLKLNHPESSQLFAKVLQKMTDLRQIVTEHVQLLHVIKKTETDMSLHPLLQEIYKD
Method: as §1, §2, §3, §4

O=C(Cc1ccc(OCc2ccccc2C(=O)O)cc1)NCc1ccc(C(F)(F)F)cc1 [Example 2, 2-{[4-(2-Oxo-2-{[4-(trifluoromethyl)benzyl]amino}ethyl)phenoxy]methyl}benzoic acid] showed an EC50 (human PPAR alpha) of 2.96 µM and an EC50 (mouse PPAR gamma) of 3.05 µM.
